Laboratory results reported in patent publication US8067411B2, “Compounds” (AstraZeneca AB, priority 2006, dated 2011).

Target: T1, Recombinant human TLR7 (Homo sapiens, UniProt Q9NYK1)
T1 construct: expressed in transfected cells; host or cells: HEK293 cell line stably expressing the pNiFty2-SEAP reporter plasmid; TLR7 in pUNO vector, blasticidin selection
T1 sequence (Q9NYK1 27-1049): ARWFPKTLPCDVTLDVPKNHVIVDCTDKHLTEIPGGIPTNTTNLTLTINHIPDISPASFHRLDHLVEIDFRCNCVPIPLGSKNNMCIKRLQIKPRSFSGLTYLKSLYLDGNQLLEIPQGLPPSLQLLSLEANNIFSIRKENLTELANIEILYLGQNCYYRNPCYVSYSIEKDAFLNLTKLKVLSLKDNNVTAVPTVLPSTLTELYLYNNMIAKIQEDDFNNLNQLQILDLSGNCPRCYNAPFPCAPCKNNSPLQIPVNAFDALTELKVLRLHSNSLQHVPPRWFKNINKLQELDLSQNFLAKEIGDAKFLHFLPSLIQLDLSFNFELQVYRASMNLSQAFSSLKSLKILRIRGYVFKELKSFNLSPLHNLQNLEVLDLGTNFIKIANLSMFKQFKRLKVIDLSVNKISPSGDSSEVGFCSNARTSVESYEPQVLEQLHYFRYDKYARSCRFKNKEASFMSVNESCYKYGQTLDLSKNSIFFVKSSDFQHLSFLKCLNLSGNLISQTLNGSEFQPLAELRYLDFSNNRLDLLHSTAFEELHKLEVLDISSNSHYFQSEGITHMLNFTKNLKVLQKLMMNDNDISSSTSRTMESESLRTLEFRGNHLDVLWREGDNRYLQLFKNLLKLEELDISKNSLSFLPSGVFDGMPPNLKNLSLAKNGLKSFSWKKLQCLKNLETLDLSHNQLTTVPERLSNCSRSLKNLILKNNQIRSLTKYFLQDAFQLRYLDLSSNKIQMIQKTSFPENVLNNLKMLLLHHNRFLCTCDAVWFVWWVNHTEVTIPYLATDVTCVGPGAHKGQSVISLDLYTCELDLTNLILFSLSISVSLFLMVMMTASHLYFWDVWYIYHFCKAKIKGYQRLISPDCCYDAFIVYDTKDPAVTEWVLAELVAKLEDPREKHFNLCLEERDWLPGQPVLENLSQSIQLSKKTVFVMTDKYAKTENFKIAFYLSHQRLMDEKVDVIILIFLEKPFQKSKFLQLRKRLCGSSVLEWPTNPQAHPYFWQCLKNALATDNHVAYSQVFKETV
Experiment: Human TLR7 assay (SEAP reporter in HEK293 cells)
Format: cell-based
Details: log of the minimal effective concentration of compound to induce SEAP release; HEK293 pNiFty2-SEAP reporter cell line, overnight incubation at 37° C., 0.1% (v/v) DMSO
Description: Recombinant human TLR7 was stably expressed in a HEK293 cell line already stably expressing the pNiFty2-SEAP reporter plasmid; integration of the reporter gene was maintained by selection with the antibiotic zeocin. The most common variant sequence of human TLR7 (represented by the EMBL sequence AF240467) was cloned into the mammalian cell expression vector pUNO and transfected into this reporter cell-line. Transfectants with stable expression were selected using the antibiotic blasticidin. In this reporter cell-line, expression of secreted alkaline phosphatase (SEAP) is controlled by an NFkB/ELAM-1 composite promoter comprising five NFkB sites combined with the proximal ELAM-1 promoter. TLR signaling leads to the translocation of NFkB and activation of the promoter results in expression of the SEAP gene. TLR7-specific activation was assessed by determining the level of SEAP produced following overnight incubation of the cells at 37° C. with the standard compound in the presence of 0.1% (v/v) dimethylsulfoxide (DMSO). Concentration dependent induction of SEAP production by compounds was expressed as the log of the minimal effective concentration of compound to induce SEAP release (pMEC).

SMILES	pMEC
CCCCOc1nc(N)c2[nH]c(=O)n(CCCN(CCCN3CCOCC3)Cc3ccc(-n4cncn4)cc3)c2n1 [Example 16, 6-Amino-2-butoxy-9-(3-{(3-morpholin-4-ylpropyl)[4-(1H-1,2,4-triazol-1-yl)benzyl]amino}propyl)-7,9-dihydro-8H-purin-8-one]	7.4
CCCCOc1nc(N)c2[nH]c(=O)n(CCCN(CCCN3CCOCC3)Cc3ccc(SC)cc3)c2n1 [Example 8, 6-Amino-2-butoxy-9-{3-[[4-(methylthio)benzyl] (3-morpholin-4-ylpropyl)amino]propyl}-7,9-dihydro-8H-purin-8-one]	7.2
CCCCOc1nc(N)c2[nH]c(=O)n(CCCN(CCCN3CCOCC3)Cc3cc(OC)cc(OC)c3)c2n1 [Example 12, 6-Amino-2-butoxy-9-{3-[(3,5-dimethoxybenzyl)(3-morpholin-4-ylpropyl)amino]propyl}-7,9-dihydro-8H-purin-8-one]	>7.7
